Source: ChEMBL document CHEMBL1157952, “Neocimicigenosides A and B, cycloartane glycosides from the rhizomes of Cimicifuga racemosa and their effects on CRF-stimulated ACTH secretion from AtT-20 cells” (2006)

Tested on: AtT20
Test: Induction of corticotropin releasing factor-stimulated ACTH secretion in mouse AtT20 cells
Type: functional

CC(=O)O[C@H]1[C@H]2C[C@@H](C)[C@H]3[C@](O2)(OC1(C)C)[C@H](O)[C@@]1(C)[C@@H]2CC[C@H]4C(C)(C)[C@@H](O[C@@H]5OC[C@H](O)[C@H](O)[C@H]5O)CC[C@@]45C[C@@]25CC[C@]31C [NEOCIMICIGENOSIDE A]
Activity: 7 ng/mL

CC(=O)O[C@H]1[C@H]2C[C@@H](C)[C@H]3[C@](O2)(OC1(C)C)[C@H](O)[C@@]1(C)[C@@H]2CC[C@H]4C(C)(C)[C@@H](O[C@@H]5OC[C@@H](O)[C@H](O)[C@H]5O)CC[C@@]45C[C@@]25CC[C@]31C [NEOCIMICIGENOSIDE B]
Activity: 7.2 ng/mL
